The nature of the data set: in vitro. To be noted: human, hela cells, % viability.

Viability data for 81 compounds are collected here from publication PMC12040169 (PLOS Biology, 2025).

One may read the viability as a read-out of living cells in per cent, often relative to untreated cells.

On to `Cc1cccc(NC2=NC(=O)/C(=C\c3ccc(Cl)cc3)S2)c1C` [CBK263619], for which the viability at 28.5 h, 10 µM was found to be 101%.

For `CS(=O)(=O)Nc1ccc(C(=O)Nc2ccc(S(=O)(=O)Nc3nccs3)cc2)cc1` [CBK267856], the viability at 28.5 h, 10 µM was determined as 97.3%.

For the compound `Cn1ncc2c(=O)[nH]c(N3CCN(c4cc(C#N)ccn4)CC3)nc21` [CBK304924], the viability at 28.5 h, 10 µM worked out at 92.4%.

Consider `CSCCCN1CCn2nc(CNc3cnccn3)cc2C1` [CBK307136], for which the viability at 28.5 h, 10 µM was 92.5%.

Consider `Cn1cc(C(=O)Nc2ccc3c(c2)CN(Cc2ccccc2)C3)cn1` [CBK281838], for which the viability at 28.5 h, 10 µM is 94.8%.

Turning to `COc1ccc(-c2noc(CNC(=O)Nc3ccc(F)cc3)n2)cc1OC` [CBK269784], the viability at 28.5 h, 10 µM was 97.2%.

`CC(C)Nc1nc2ccccc2nc1SCCC(=O)O` [CBK107858]: the viability at 28.5 h, 10 µM amounted to 106%.

Consider `Cc1nc(-c2cc(Cl)c(Cl)s2)cs1` [CBK009801], for which the viability at 28.5 h, 10 µM was found to be 84.2%.

Take `Cc1cn(CC(=O)N2CCC3(CCN(C(=O)Cc4c[nH]c5ccccc45)C3)C2)c(=O)[nH]c1=O` (stereo not drawn) [CBK131445]: the viability at 28.5 h, 10 µM was found to be 101%.

Turning to `COc1ccc(C)cc1S(=O)(=O)N(CCO)c1cc(N2CCNCC2)c2occc2c1` [CBK067894C], the viability at 28.5 h, 10 µM stood at 86%.

Take `CCc1csc(C(=Cc2ccc(OC)cc2)C(N)=O)n1` [CBK001010]: the viability at 28.5 h, 10 µM was 86.9%.

Consider `c1cc(-c2ccc(OC3CCNCC3)cc2)c2cccnc2c1` [CBK103528T], for which the viability at 28.5 h, 10 µM is 92.7%.

Consider `CC(=O)Nc1ccc(OCC(O)Cn2c(CO)nc3ccccc32)cc1` (stereo not drawn) [CBK304549], for which the viability at 28.5 h, 10 µM amounted to 81.3%.

Regarding `COc1ccc(Nc2ncnc3c2oc2ccccc23)cc1` [CBK291236], the viability at 28.5 h, 10 µM was found to be 86.5%.

As to `O=C(c1ccccc1)c1ccc2n1CCC2C(=O)Nc1ccccc1F` (stereo not drawn) [CBK300530], the viability at 28.5 h, 10 µM turned out to be 90.5%.

As to `O=C1c2ccc(S(=O)(=O)c3ccc4c(c3)C(=O)N(c3nccs3)C4=O)cc2C(=O)N1c1nccs1` [CBK261335], the viability at 28.5 h, 10 µM came to 105%.

Consider `CCOC(=O)C1CCCCN1Cc1ccc(OC)c(O)c1` (stereo not drawn) [CBK261560], for which the viability at 28.5 h, 10 µM was determined as 98.3%.

With `C[N+]1(C)CCCC1c1cc(Br)cnc1N` (stereo not drawn) [CBK217873I], the viability at 28.5 h, 10 µM was found to be 90.8%.

With `CCCS(=O)(=O)N1CCC(C(=O)NCc2ccc(Cl)cc2Cl)CC1` [CBK305559], the viability at 28.5 h, 10 µM is 102%.

Regarding `Cn1ccnc1C1(O)CCN(C(=O)NCc2ccccc2)CC1` [CBK282276], the viability at 28.5 h, 10 µM is 94.9%.

Consider `CCCn1ccnc1-c1cn(CCc2cc(O)nc(C)n2)nn1` [CBK306675], for which the viability at 28.5 h, 10 µM was determined as 114%.

`O=c1[nH]cc(-c2ccc(F)cc2)cc1CNCc1ccccc1F` [CBK284696]: the viability at 28.5 h, 10 µM was 86.1%.

With `Cc1cccc(C)c1NC(=O)CN(c1ccc(F)cc1)S(=O)(=O)c1ccc2c(c1)OCCO2` [CBK264878], the viability at 28.5 h, 10 µM was 104%.

For the compound `O=[N+]([O-])c1cnc(NS(=O)(=O)c2ccc(Oc3ccccc3)cc2)s1` [CBK067535], the viability at 28.5 h, 10 µM came to 102%.

Turning to `Cc1ccc([N+](=O)[O-])cc1NC(=O)C1CCCN1S(=O)(=O)c1ccc(Cl)cc1` (stereo not drawn) [CBK033769], the viability at 28.5 h, 10 µM was found to be 95.7%.

For `CC1(C)OCc2nc(C(O)C(C)(C)C)ccc2O1` (stereo not drawn) [CBK005386], the viability at 28.5 h, 10 µM came out at 98.4%.

Take `O=C(NCC1CCCN1)c1cc(C(=O)c2ccc(Cl)cc2Cl)c[nH]1` (stereo not drawn) [CBK115923C]: the viability at 28.5 h, 10 µM is 86.1%.

Take `Cc1nc(C2CC(=O)N(Cc3ccccn3)C2)n(-c2ccccc2F)n1` (stereo not drawn) [CBK306895]: the viability at 28.5 h, 10 µM turned out to be 89.6%.

Consider `COc1ccccc1Nc1nc(N)nc(CSc2ncccn2)n1` [CBK266734], for which the viability at 28.5 h, 10 µM was found to be 104%.

For the compound `CCn1c(=O)n(CCC(=O)NC(C(N)=O)c2ccccc2)c2ccccc21` (stereo not drawn) [CBK295196], the viability at 28.5 h, 10 µM is 89.7%.

With `COc1cc(CN2CCN(Cc3ccco3)CC2)cc(OC)c1OC` [CBK074520G], the viability at 28.5 h, 10 µM amounted to 88.2%.

Take `Cc1[nH]c(=O)[nH]c(=O)c1N(CCO)CCO` [CBK262052]: the viability at 28.5 h, 10 µM was 94.8%.

In the case of `O=C(O)CCCn1cc(NC(=O)Cc2ccccc2F)cn1` [CBK270119], the viability at 28.5 h, 10 µM amounted to 96.3%.

As to `c1cnn(CC2CCCN2c2ncnc3sc4c(c23)CCNC4)c1` (stereo not drawn) [CBK307490], the viability at 28.5 h, 10 µM came out at 85.9%.

`COc1cc2c(cc1OC)CN(C(=O)Cc1ccccc1)CC2` [CBK122751]: the viability at 28.5 h, 10 µM stood at 90.7%.

Turning to `O=C1CN=C(N2C(=O)C3C4C=CC(C4)C3C2=O)C(=O)N1` (stereo not drawn) [CBK028818], the viability at 28.5 h, 10 µM stood at 89.7%.

Regarding `O=C1CCCN1CCOc1nccnc1-c1cc2ccccc2s1` [CBK106780], the viability at 28.5 h, 10 µM was found to be 91%.

`CC(=O)Nc1cccc(CN2CCCC2CC(O)c2ccccc2)c1` (stereo not drawn) [CBK305136]: the viability at 28.5 h, 10 µM stood at 104%.

For the compound `O=C(NCc1cccnc1)c1cc2c(ccc3ccccc32)oc1=O` [CBK270195], the viability at 28.5 h, 10 µM amounted to 95.7%.

With `Nc1ncnc(Nc2ccc(Nc3ccccc3)cc2)c1[N+](=O)[O-]` [CBK267347], the viability at 28.5 h, 10 µM worked out at 88.9%.

With `COc1ccccc1C1(NC(=O)Cn2nc(C)cc2C)CCCC1` [CBK283573], the viability at 28.5 h, 10 µM was found to be 101%.

On to `Cc1nccnc1N1CCC2(CCCN(CC3CCC3)C2=O)C1` (stereo not drawn) [CBK306806], for which the viability at 28.5 h, 10 µM was found to be 103%.

Regarding `c1cnc(N2CCCC2)c(OC2CCNC2)n1` (stereo not drawn) [CBK115284], the viability at 28.5 h, 10 µM is 98.3%.

As to `O=C(N[C@H]1CCN2C(=O)c3cc(-c4ccccc4)ccc3NC(=O)[C@H]12)C1CCCC1` [CBK289349], the viability at 28.5 h, 10 µM amounted to 91.6%.

Take `O=C(Nc1ccc(NC(=O)c2cc3ccccc3o2)cc1)c1ccc(-c2ccccc2)cc1` [CBK268887]: the viability at 28.5 h, 10 µM stood at 107%.

Regarding `COC(=O)C1CC(O)CC1C(=O)N1CCCC1` (stereo not drawn) [CBK011029], the viability at 28.5 h, 10 µM came to 89.6%.

As for `Cc1noc(C)c1C(=O)N1CCCCCC1c1nn(C)cc1Cl` (stereo not drawn) [CBK285106], the viability at 28.5 h, 10 µM was 101%.

For `CN(Cc1ccc(CN2CCOC(c3ccccc3)C2)o1)S(C)(=O)=O` (stereo not drawn) [CBK306808], the viability at 28.5 h, 10 µM was 88.2%.

For `O=C1Nc2cc(Cl)ccc2C(=O)N2CC[C@H](NC(=O)N3CCOCC3)[C@@H]12` [CBK289340], the viability at 28.5 h, 10 µM turned out to be 87.7%.

As for `CC(=O)NC(O)C(=O)c1cccs1` (stereo not drawn) [CBK027756], the viability at 28.5 h, 10 µM amounted to 111%.

`COCCN(Cc1cc2cccc(C)c2nc1O)S(C)(=O)=O` [CBK269395]: the viability at 28.5 h, 10 µM was 99.9%.

`CN(C)CCCNC(=O)c1ccnc(/C=N/O)c1` [CBK288434]: the viability at 28.5 h, 10 µM was 101%.

`CCN(CC)CC(C)C(O)(c1ccc(Cl)cc1)c1ccc(Cl)cc1` (stereo not drawn) [CBK012146C]: the viability at 28.5 h, 10 µM stood at 103%.

As to `CCOc1cc(OCC)cc(C(=O)Nc2ccc(-c3nc4ncccc4o3)cc2)c1` [CBK263440], the viability at 28.5 h, 10 µM amounted to 96.8%.

Consider `COC(=O)c1ccccc1NC(=O)CN(c1cccc(Cl)c1Cl)S(C)(=O)=O` [CBK264612], for which the viability at 28.5 h, 10 µM came to 115%.

With `CN1CCN(CC2(CNC(=O)c3ccc(C(=O)O)cc3)CC2)CC1` [CBK307517], the viability at 28.5 h, 10 µM amounted to 102%.

Turning to `O=C(c1ccccc1)N1C[C@H](c2ccc(F)cc2)[C@H]2CN(Cc3ccccc3F)CC[C@H]21` [CBK286289], the viability at 28.5 h, 10 µM stood at 90.1%.

In the case of `Cc1ccc(-c2cc(=O)c3cc(OCC(=O)Nc4sc5c(c4C#N)CCCC5)ccc3o2)cc1` [CBK269062], the viability at 28.5 h, 10 µM is 96.6%.

For `Cc1nc(-c2ccccc2)sc1CNC(=O)C1CC1C` (stereo not drawn) [CBK092369], the viability at 28.5 h, 10 µM is 97%.

Take `O=C(NCc1cccnc1)c1cc(Br)cnc1NCCOc1ccccc1` [CBK076265]: the viability at 28.5 h, 10 µM worked out at 99.2%.

On to `Cc1cc(C(F)(F)F)nn1CCC(=O)Nc1cnn(C)c1C(=O)O` [CBK286817], for which the viability at 28.5 h, 10 µM is 98.4%.

As to `CC(NC(=O)CN1CCCCCC1=O)c1cc2cc(Cl)ccc2o1` (stereo not drawn) [CBK281448], the viability at 28.5 h, 10 µM was 87.7%.

In the case of `COc1ccc(CNC(=O)C2CC=CCC2C(=O)O)cc1OC` (stereo not drawn) [CBK267695], the viability at 28.5 h, 10 µM was 86.6%.

Take `Cn1ccc2cc(-c3cn4ccnc4c(N4CCOCC4)n3)ccc21` [CBK066696]: the viability at 28.5 h, 10 µM was found to be 89.1%.

Consider `Cc1cc(C)c(OCCCN2CCCCCC2)c(Cl)c1` [CBK266026G], for which the viability at 28.5 h, 10 µM is 101%.

As for `CN1CCN(NC(=O)COc2cccc(C(F)(F)F)c2)CC1` [CBK268124], the viability at 28.5 h, 10 µM is 90.2%.

As to `O=C(Cc1c[nH]c2ccccc12)N1CCC2(CCCN(Cc3cc(=O)[nH]c(=O)[nH]3)C2)C1` (stereo not drawn) [CBK132049], the viability at 28.5 h, 10 µM was found to be 102%.

For `Cc1cc(C2CCCCCN2C(=O)c2c(C)noc2C)on1` (stereo not drawn) [CBK284844], the viability at 28.5 h, 10 µM was 90%.

On to `O=S(=O)(c1ccc(-c2cncc(-c3ccc(O)cc3)n2)cc1)N1CCOCC1` [CBK123786], for which the viability at 28.5 h, 10 µM came out at 84.6%.

With `COc1ccc(-c2cc(C(=O)NCc3ccc4c(c3)OCO4)cnc2-c2ccccc2)cn1` [CBK037571], the viability at 28.5 h, 10 µM came to 97.9%.

For the compound `CC(NC(=O)CCn1cncn1)c1cccs1` (stereo not drawn) [CBK282199], the viability at 28.5 h, 10 µM stood at 103%.

On to `COc1ccc(C(=O)C2=C(O)C(=O)N(CCN3CCNCC3)C2c2ccccc2F)cc1` (stereo not drawn) [CBK264666], for which the viability at 28.5 h, 10 µM was determined as 99.4%.

With `CSc1ncc(C(=O)NC2CCCC2)c(NC2CCCC2)n1` [CBK291223], the viability at 28.5 h, 10 µM is 91.3%.

As for `OCCN1CCN(CCCc2ccccc2)CC1` [CBK261872], the viability at 28.5 h, 10 µM came to 86%.

For `FC(F)c1cc([C@@H]2CN(CC3CCOC3)C[C@H]2c2ccccc2)n[nH]1` (stereo partly drawn) [CBK285430], the viability at 28.5 h, 10 µM came to 98.5%.

In the case of `Cc1ccc(C(=O)NNC(=O)c2ccc([N+](=O)[O-])cc2)cc1` [CBK261793], the viability at 28.5 h, 10 µM came to 89.5%.

Turning to `c1cc(C2CCCCN2Cc2ccc3[nH]ccc3c2)nc(Nc2nccs2)n1` (stereo not drawn) [CBK286109], the viability at 28.5 h, 10 µM stood at 83.6%.

`Cc1cccc(NC(=S)N/N=C/c2sccc2C)c1` [CBK022228]: the viability at 28.5 h, 10 µM was 104%.

Take `CN(C)CCN(C)C(=O)c1ccc(-c2ccco2)nc1N(C)C` [CBK106078]: the viability at 28.5 h, 10 µM was 84.1%.

Turning to `O=S(=O)(NCCNc1ncc(C(F)(F)F)cc1Cl)C(F)(F)F` [CBK008366], the viability at 28.5 h, 10 µM was 109%.

Take `Cc1ccc(F)c(OC2(C(=O)O)CCN(Cc3ncc[nH]3)CC2)c1` [CBK307062]: the viability at 28.5 h, 10 µM was 85.2%.
